Legend:
Format in all cases: in vivo
Lindernia pyxidaria [1] = assay: Test Example 1: herbicidal effect test by soil treatment in paddy field; conditions: 120 g/10a, paddy soil treatment just after sowing, 14 days after treatment
Procedure, shortened: (§1)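 Flooded paddy-soil pots (1/10000 are, N:P:K 17:17:17 fertilizer, puddled) were sown with 30 seeds per species at 0–1 cm, water kept ~3 cm in a greenhouse. Emulsifiable concentrate diluted in water was dripped in right after sowing at 120 g a.i. per 10 are. Suppression (%) came from dry weight vs untreated at 14 days.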

Scirpus juncoides [2] = assay: as above; conditions: 120 g/10a, paddy soil treatment just after sowing, 14 days after treatment
Procedure, shortened: as §1

Echinochloa crus-galli [3] = assay: as above; conditions: 120 g/10a, paddy soil treatment just after sowing, 14 days after treatment
Procedure, shortened: as §1

Monochoria vaginalis [4] = assay: as above; conditions: 120 g/10a, paddy soil treatment just after sowing, 14 days after treatment
Procedure, shortened: as §1

Lindernia pyxidaria [5] = assay: Test Example 2: herbicidal effect test by treatment during growing period in paddy field; conditions: treatment 7 days after sowing, 120 g/10a, evaluated 14 days after treatment
Procedure, shortened: (§2)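 Read-out is weed suppression (%), 1 − mean dry weight treated/untreated ×100, taken 14 days after treatment with duplicate plots. Treatment: water-diluted emulsifiable concentrate added dropwise to flooded paddy-soil pots 7 days post-sowing at 120 g active ingredient per 10 are.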

Scirpus juncoides [6] = assay: as above; conditions: treatment 7 days after sowing, 120 g/10a, evaluated 14 days after treatment
Procedure, shortened: as §2

Echinochloa crus-galli [7] = assay: as above; conditions: treatment 7 days after sowing, 120 g/10a, evaluated 14 days after treatment
Procedure, shortened: as §2

Monochoria vaginalis [8] = assay: as above; conditions: treatment 7 days after sowing, 120 g/10a, evaluated 14 days after treatment
Procedure, shortened: as §2

crabgrass [9] = assay: Test Example 3: herbicidal effect test by soil treatment in upland field; conditions: upland field soil treatment 1 day after sowing; 120 g/10a; evaluated 14 days after treatment
Method: (§3) This test was performed with two replications per one formulation concentration plot, and 14 days after the formulation treatments, the weed suppression rate (%) was determined according to the following equation (Math. 1). Weed suppression rate (%)=(1−an average dry weight (g) of plants in treated plots/an average dry weight (g) of plants in untreated plots)×100 [Math. 1]
(§4) A pot having a size of 36 cm^2 was filled with field soil (alluvial soil) and after uniformly mixing the soil of the surface layer of 1 cm with 20 grains of each weed seed of crabgrass, Echinochloa crus-galli, Chenopodium album and Amaranthus viridis, the surface layer was pressed lightly. One day after the sowing, an emulsifiable concentrate prepared according to Formulation Example 5 by using the compound shown in Table 7 below was diluted with water, and the water-diluted formulation was sprayed on the soil surface at a ratio of 100 liter per 10 are. The application rate of the active ingredient, by conversion, corresponded to 120 g per 10 are. Fourteen days after the formulation treatment, the herbicidal effect was evaluated by the same criteria as in Test Example 1.

Chenopodium album [10] = assay: as above; conditions: upland field soil treatment 1 day after sowing; 120 g/10a; evaluated 14 days after treatment
Method: as §3, §4

Echinochloa crus-galli [11] = assay: as above; conditions: upland field soil treatment 1 day after sowing; 120 g/10a; evaluated 14 days after treatment
Method: as §3, §4

Amaranthus viridis [12] = assay: as above; conditions: upland field soil treatment 1 day after sowing; 120 g/10a; evaluated 14 days after treatment
Method: as §3, §4

crabgrass [13] = assay: Test Example 4: herbicidal effect test by foliage treatment in upland field; conditions: upland field foliage treatment 7 days after sowing; 120 g/10a; evaluated 14 days after treatment
Method: as §3
as §4, with “Seven days” for “One day”, “8” for “7”

Chenopodium album [14] = assay: as above; conditions: upland field foliage treatment 7 days after sowing; 120 g/10a; evaluated 14 days after treatment
Method: as §3
as §4, with “Seven days” for “One day”, “8” for “7”

Echinochloa crus-galli [15] = assay: as above; conditions: upland field foliage treatment 7 days after sowing; 120 g/10a; evaluated 14 days after treatment
Method: as §3
as §4, with “Seven days” for “One day”, “8” for “7”

Amaranthus viridis [16] = assay: as above; conditions: upland field foliage treatment 7 days after sowing; 120 g/10a; evaluated 14 days after treatment
Method: as §3
as §4, with “Seven days” for “One day”, “8” for “7”

SMILES	weed suppression rate, Lindemia pyxidaria (Lindernia pyxidaria [1]) [%]	weed suppression rate, Scirpus juncoides (Scirpus juncoides [2]) [%]	weed suppression rate, Echinochloa crus-galli (Echinochloa crus-galli [3]) [%]	weed suppression rate, Monochoria vaginalis (Monochoria vaginalis [4]) [%]	weed suppression rate, Lindemia pyxidaria (Lindernia pyxidaria [5]) [%]	weed suppression rate, Scirpus juncoides (Scirpus juncoides [6]) [%]	weed suppression rate, Echinochloa crus-galli (Echinochloa crus-galli [7]) [%]	weed suppression rate, Monochoria vaginalis (Monochoria vaginalis [8]) [%]	herbicidal effect (weed suppression rate), Crabgrass (crabgrass [9]) [%]	herbicidal effect (weed suppression rate), Chenopodium album (Chenopodium album [10]) [%]	herbicidal effect (weed suppression rate), Echinochloa crus-galli (Echinochloa crus-galli [11]) [%]	herbicidal effect (weed suppression rate), Amaranthus viridis (Amaranthus viridis [12]) [%]	herbicidal effect (weed suppression rate), Crabgrass (crabgrass [13]) [%]	herbicidal effect (weed suppression rate), Chenopodium album (Chenopodium album [14]) [%]	herbicidal effect (weed suppression rate), Echinochloa crus-galli (Echinochloa crus-galli [15]) [%]	herbicidal effect (weed suppression rate), Amaranthus viridis (Amaranthus viridis [16]) [%]
Cc1ccc(N(C(=O)n2ncn(S(=O)(=O)C3CC3)c2=O)C(C)C)c(F)c1 [Compound 1-221]	90	90	90	90	80	90	90	80	90	80	80	90				
CC(C)N(C(=O)n1ncn(S(=O)(=O)C(C)C)c1=O)c1ccc(F)nc1 [Compound 1-242]									90	80	80	90				
CCN(CC)S(=O)(=O)n1cnn(C(=O)N(c2ccc(F)cc2F)C(C)C)c1=O [Compound 1-1140]	80	90	90	80					90	80	80	90				
Cc1cc(N(C(=O)n2ncn(S(=O)(=O)C(C)C)c2=O)C(C)C)no1 [Compound 1-99]	80	50	60	90	80	90	90	80					90	80	80	90
CC(C)N(C(=O)n1ncn(S(=O)(=O)C2CC2)c1=O)c1ccc(C(F)(F)F)cc1Cl [Compound 1-229]	80	90	90	80	80	90	90	80	90	80	80	90				
CC(C)N(C(=O)n1ncn(S(=O)(=O)C2CCCCC2)c1=O)c1ccc(F)cc1F [Compound 1-306]	100	100	100	100	100	90	100	100	90	80	80	90				
CCN(C)S(=O)(=O)n1cnn(C(=O)N(c2ccc(F)cc2F)C(C)C)c1=O [Compound 1-1139]	90	90	100	90	80	90	90	80	90	80	80	90				
CC(C)N(C(=O)n1ncn(S(=O)(=O)C2CC2)c1=O)c1cccc(F)c1 [Compound 1-170]	100	90	90	90	90	90	100	90					90	80	80	90
CC(C)N(C(=O)n1ncn(S(=O)(=O)C2CC2)c1=O)c1c(F)cc(F)cc1F [Compound 1-204]	100	100	100	80	80	100	100	100					100	60	100	80
CC(C)N(C(=O)n1ncn(S(=O)(=O)C2CC2)c1=O)c1ccc(C(F)(F)F)cc1F [Compound 1-226]	100	100	100	100	80	90	100	100					100	80	100	90
CC(C)N(C(=O)n1ncn(S(=O)(=O)C2CCCCC2)c1=O)c1c(F)c(F)cc(F)c1F [Compound 1-311]	100	100	100	100	80	90	100	100					100	60	100	0
CC(C)N(C(=O)n1ncn(S(=O)(=O)N(C)C)c1=O)c1ccc(Cl)nc1Cl [Compound 1-1136]	90	90	100	90	90	90	100	80					90	80	80	90

From patent publication US11076595B2, “1-(n,n-disubstituted carbamoyl) 4-(substituted sulfonyl)triazolin-5-one derivative, 4-(n,n-disubstituted carbamoyl) 1-(substituted sulfonyl)triazolin-5-one derivative, and herbicide containing said derivative as active ingredient” (HOKKO CHEMICAL INDUSTRY CO., LTD., priority 2017, dated 2021)
